These results are taken from US20250186437A1, “CARBOLINE COMPOUNDS AND USE THEREOF” (PTC Therapeutics, Inc., priority 2021, published 2025).

In the experiment the test system is MOLM-13 cells. Kind of experiment: MOLM-13 Cell Proliferation Assay (indicator of DHODH inhibition). In kind it is cell-based. The conditions noted are these: Homo sapiens, 72 Hours of culture, CellTiter-Glo, no uridine. A digest of the protocol: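 Proliferation readout via CellTiter-Glo luminescence after 72 h compound treatment (37 °C, 5% CO2, 0.5% DMSO) of MOLM-13 cells seeded at 10^4 per well in RPMI 1640/10% FBS, used as a DHODH-inhibition indicator since these cells rely on de novo pyrimidine synthesis.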

The compound `CN(C)c1ccc(C2c3[nH]c4cc(F)c(Cl)cc4c3CCN2c2nccc(C(F)(F)F)n2)c(F)c1F` (centres unmarked) [Compound 173, 4-{6-chloro-7-fluoro-2-[4-(trifluoromethyl)pyrimidin-2-yl]-2,3,4,9-tetrahydro-1H-pyrido[3,4-b]indol-1-yl}-2,3-difluoro-N,N-dimethylaniline] yielded an IC50 of 8.6 nM.
`Fc1cccc(C2c3[nH]c4ccc(Cl)cc4c3CCN2c2nccc(C(F)(F)F)n2)c1` (centres unmarked) [Compound 371, 6-chloro-1-(3-fluorophenyl)-2-[4-(trifluoromethyl)pyrimidin-2-yl]-2,3,4,9-tetrahydro-1H-pyrido[3,4-b]indole] gave an IC50 of 8.8 nM.
Regarding `CN(C)c1ncc(C2c3[nH]c4cc(F)c(Cl)cc4c3CCN2c2nccc(C(F)(F)F)n2)cn1` (centres unmarked) [Compound 95, 5-{6-chloro-7-fluoro-2-[4-(trifluoromethyl)pyrimidin-2-yl]-2,3,4,9-tetrahydro-1H-pyrido[3,4-b]indol-1-yl}-N,N-dimethylpyrimidin-2-amine], it took 4.6 nM to reach half-maximal inhibition (IC50).
With `Cc1ccc([C@H]2c3[nH]c4ccc(Cl)cc4c3CCN2c2nc(C)nc(C(F)(F)F)n2)cc1` [Compound 467, (1S)-6-chloro-1-(4-methylphenyl)-2-[4-methyl-6-(trifluoromethyl)-1,3,5-triazin-2-yl]-2,3,4,9-tetrahydro-1H-pyrido[3,4-b]indole], the concentration for half-maximal inhibition (IC50) came to 0.7 nM.
`Cc1nc(C)nc(N2CCc3c([nH]c4ccc(Cl)cc34)C2c2ccc(N3C[C@@H]4C[C@H]3CO4)nc2)n1` (stereo partly drawn) [Compound 377, 6-chloro-2-(4,6-dimethyl-1,3,5-triazin-2-yl)-1-{6-[(1S,4S)-2-oxa-5-azabicyclo[2.2.1]heptan-5-yl]pyridin-3-yl}-2,3,4,9-tetrahydro-1H-pyrido[3,4-b]indole] registered an IC50 of 41.6 nM.
The compound `Cc1ccc([C@H]2c3[nH]c4ccc(Cl)c(F)c4c3CCN2c2nc(C)c(F)c(C)n2)c(F)c1F` [Compound 189, (1S)-6-chloro-1-(2,3-difluoro-4-methylphenyl)-5-fluoro-2-(5-fluoro-4,6-dimethylpyrimidin-2-yl)-2,3,4,9-tetrahydro-1H-pyrido[3,4-b]indole] displayed a 50% inhibitory concentration (IC50) of 0.4 nM.
Consider `OCCCCc1ccc(C2c3[nH]c4cc(F)c(Cl)cc4c3CCN2c2nccc(C(F)(F)F)n2)cc1` (centres unmarked) [Compound 168, 4-(4-{6-chloro-7-fluoro-2-[4-(trifluoromethyl)pyrimidin-2-yl]-2,3,4,9-tetrahydro-1H-pyrido[3,4-b]indol-1-yl}phenyl)butan-1-ol], for which half-maximal inhibition (IC50) required 4.1 nM.
On to `Cc1ccnc(N2CCc3c([nH]c4cc(F)c(Cl)cc34)C2c2ccc(N(C)C)nc2)n1` (centres unmarked) [Compound 126, 5-[6-chloro-7-fluoro-2-(4-methylpyrimidin-2-yl)-2,3,4,9-tetrahydro-1H-pyrido[3,4-b]indol-1-yl]-N,N-dimethylpyridin-2-amine], for which the IC50 amounted to 21.3 nM.
Take `Fc1ccc(C2c3[nH]c4ccc(Cl)c(F)c4c3CCN2c2nccc(C(F)(F)F)n2)cc1` (centres unmarked) [Compound 60, 6-chloro-5-fluoro-1-(4-fluorophenyl)-2-[4-(trifluoromethyl)pyrimidin-2-yl]-2,3,4,9-tetrahydro-1H-pyrido[3,4-b]indole]: the IC50 came out at 9.3 nM.
Regarding `Cc1nc(C)nc(N2CCc3c([nH]c4ccc(Cl)cc34)C2c2ccc(N3C[C@H]4C[C@@H]3CO4)nc2)n1` (stereo partly drawn) [Compound 376, 6-chloro-2-(4,6-dimethyl-1,3,5-triazin-2-yl)-1-{6-[(1R,4R)-2-oxa-5-azabicyclo[2.2.1]heptan-5-yl]pyridin-3-yl}-2,3,4,9-tetrahydro-1H-pyrido[3,4-b]indole], the IC50 was 33.2 nM.
For the compound `Cc1ccc([C@@H]2c3[nH]c4ccc(Cl)cc4c3CCN2c2nccc(C(F)(F)F)n2)c(F)c1F` [Compound 180, (1R)-6-chloro-1-(2,3-difluoro-4-methylphenyl)-2-[4-(trifluoromethyl)pyrimidin-2-yl]-2,3,4,9-tetrahydro-1H-pyrido[3,4-b]indole], 11.3 nM corresponded to half-maximal inhibition (IC50).
Turning to `CN1CCN(c2ncc([C@H]3c4[nH]c5ccc(Cl)cc5c4CCN3c3nc(N4CCN(C)CC4)nc(C(F)(F)F)n3)cn2)CC1` [Compound 479, (1S)-6-chloro-1-[2-(4-methylpiperazin-1-yl)pyrimidin-5-yl]-2-[4-(4-methylpiperazin-1-yl)-6-(trifluoromethyl)-1,3,5-triazin-2-yl]-2,3,4,9-tetrahydro-1H-pyrido[3,4-b]indole], 66.1 nM corresponded to half-maximal inhibition (IC50).
For the compound `N#Cc1ccc(C2c3[nH]c4ccc(Cl)c(F)c4c3CCN2c2ncc(Cl)cn2)cc1` (centres unmarked) [Compound 52, 4-[6-chloro-2-(5-chloropyrimidin-2-yl)-5-fluoro-2,3,4,9-tetrahydro-1H-pyrido[3,4-b]indol-1-yl]benzonitrile], the concentration for half-maximal inhibition (IC50) came to 25.7 nM.
`CSc1nc(N2CCc3c([nH]c4ccc(Cl)cc34)[C@@H]2c2ccc(C)c(F)c2F)nc(C(F)(F)F)n1` [Compound 389, (1S)-6-chloro-1-(2,3-difluoro-4-methylphenyl)-2-[4-(methylsulfanyl)-6-(trifluoromethyl)-1,3,5-triazin-2-yl]-2,3,4,9-tetrahydro-1H-pyrido[3,4-b]indole] gave a half-inhibitory concentration (IC50) of 0.8 nM.
`Fc1cc2[nH]c3c(c2cc1Cl)CCN(c1nccc(Cl)n1)C3c1ccc(Cl)cc1` (centres unmarked) [Compound 39, 6-chloro-1-(4-chlorophenyl)-2-(4-chloropyrimidin-2-yl)-7-fluoro-2,3,4,9-tetrahydro-1H-pyrido[3,4-b]indole] gave an IC50 of 10.3 nM.
For `Cc1nc(N2CCc3c([nH]c4cc(F)c(Cl)cc34)C2c2ccc(/C=C/CCO)cc2)ncc1F` (centres unmarked) [Compound 239, (3E)-4-{4-[6-chloro-7-fluoro-2-(5-fluoro-4-methylpyrimidin-2-yl)-2,3,4,9-tetrahydro-1H-pyrido[3,4-b]indol-1-yl]phenyl}but-3-en-1-ol], the IC50 was 2.5 nM.
The compound `Cc1ccc(C2c3[nH]c4cc(F)c(Cl)cc4c3CCN2c2nc(C)c(C)c(C)n2)cc1` (centres unmarked) [Compound 163, 6-chloro-7-fluoro-1-(4-methylphenyl)-2-(4,5,6-trimethylpyrimidin-2-yl)-2,3,4,9-tetrahydro-1H-pyrido[3,4-b]indole] yielded an IC50 of 10.9 nM.
Consider `Cc1nc(N2CCc3c([nH]c4ccc(Cl)c(F)c34)C2c2ccc(CCCCO)cc2)ncc1F` (centres unmarked) [Compound 246, 4-{4-[6-chloro-5-fluoro-2-(5-fluoro-4-methylpyrimidin-2-yl)-2,3,4,9-tetrahydro-1H-pyrido[3,4-b]indol-1-yl]phenyl}butan-1-ol], for which 2.8 nM corresponded to half-maximal inhibition (IC50).
With `Fc1cnc(N2CCc3c([nH]c4cc(F)c(Cl)cc34)C2c2cccc(F)c2)nc1` (centres unmarked) [Compound 58, 6-chloro-7-fluoro-1-(3-fluorophenyl)-2-(5-fluoropyrimidin-2-yl)-2,3,4,9-tetrahydro-1H-pyrido[3,4-b]indole], the IC50 was found to be 89.8 nM.
For `Cc1ccc([C@@H]2c3[nH]c4ccc(Cl)cc4c3CCN2c2ncc(F)cn2)c(F)c1F` [Compound 179, (1R)-6-chloro-1-(2,3-difluoro-4-methylphenyl)-2-(5-fluoropyrimidin-2-yl)-2,3,4,9-tetrahydro-1H-pyrido[3,4-b]indole] the value was 23.2 nM.
In turn, `N#Cc1ccnc(N2CCc3c([nH]c4cc(F)c(Cl)cc34)C2c2cccc(F)c2F)n1` (centres unmarked) [Compound 68, 2-[6-chloro-1-(2,3-difluorophenyl)-7-fluoro-1,3,4,9-tetrahydro-2H-pyrido[3,4-b]indol-2-yl]pyrimidine-4-carbonitrile] came in with an IC50 of 8.8 nM.
`Cc1cnc(N2CCc3c([nH]c4ccc(Cl)cc34)C2c2ccc(F)cc2)nc1` (centres unmarked) [Compound 2, 6-chloro-1-(4-fluorophenyl)-2-(5-methylpyrimidin-2-yl)-2,3,4,9-tetrahydro-1H-pyrido[3,4-b]indole] had an IC50 of 60.6 nM.
In turn, `Cc1ccnc(N2CCc3c([nH]c4ccc(Cl)cc34)[C@H]2c2ccc(C)c(F)c2F)n1` [Compound 185, (1R)-6-chloro-1-(2,3-difluoro-4-methylphenyl)-2-(4-methylpyrimidin-2-yl)-2,3,4,9-tetrahydro-1H-pyrido[3,4-b]indole] yielded an IC50 of 16.2 nM.
In the case of `FC(F)(F)c1cc(C(F)(F)F)nc(N2CCc3c([nH]c4ccc(-n5nccn5)cc34)C2c2ccc(N3CCOCC3)nc2)n1` (centres unmarked) [Compound 454, 2-[4,6-bis(trifluoromethyl)pyrimidin-2-yl]-1-[6-(morpholin-4-yl)pyridin-3-yl]-6-(2H-1,2,3-triazol-2-yl)-2,3,4,9-tetrahydro-1H-pyrido[3,4-b]indole], the IC50 was determined as 0.7 nM.
For the compound `Cc1cc(C)nc(N2CCc3c([nH]c4cc(F)c(Cl)cc34)C2c2ccc(F)cc2)n1` (centres unmarked) [Compound 19, 6-chloro-2-(4,6-dimethylpyrimidin-2-yl)-7-fluoro-1-(4-fluorophenyl)-2,3,4,9-tetrahydro-1H-pyrido[3,4-b]indole], half-maximal inhibition (IC50) was put at 26.3 nM.
Consider `Oc1cc(C2c3[nH]c4ccc(Cl)cc4c3CCN2c2nccc(C(F)(F)F)n2)ccc1Cl` (centres unmarked) [Compound 218, 2-chloro-5-{6-chloro-2-[4-(trifluoromethyl)pyrimidin-2-yl]-2,3,4,9-tetrahydro-1H-pyrido[3,4-b]indol-1-yl}phenol], for which the IC50 amounted to 6.1 nM.
In the case of `Cc1nc(N2CCc3c([nH]c4ccc(Cl)cc34)[C@@H]2c2cnc(N3CCOCC3)nc2)nc(C(F)(F)F)n1` [Compound 466, (1S)-6-chloro-2-[4-methyl-6-(trifluoromethyl)-1,3,5-triazin-2-yl]-1-[2-(morpholin-4-yl)pyrimidin-5-yl]-2,3,4,9-tetrahydro-1H-pyrido[3,4-b]indole], the midpoint of inhibition, the IC50, lay at 0.9 nM.
On to `Cc1nc(C)nc(N2CCc3c([nH]c4c(O)cc(Cl)cc34)C2c2cnc(N3CCOCC3)nc2)n1` (centres unmarked) [Compound 370, 6-chloro-2-(4,6-dimethyl-1,3,5-triazin-2-yl)-1-[2-(morpholin-4-yl)pyrimidin-5-yl]-2,3,4,9-tetrahydro-1H-pyrido[3,4-b]indol-8-ol], for which the IC50 turned out to be 8.1 nM.
For the compound `FC(F)(F)c1ccnc(N2CCc3c([nH]c4ccc(Cl)cc34)C2c2cnc(N3CCC3)nc2)n1` (centres unmarked) [Compound 344, 1-[2-(azetidin-1-yl)pyrimidin-5-yl]-6-chloro-2-[4-(trifluoromethyl)pyrimidin-2-yl]-2,3,4,9-tetrahydro-1H-pyrido[3,4-b]indole], the IC50 came to 9.5 nM.
